Source: patent US20200206200A1, “PROPHYLACTIC AND/OR THERAPEUTIC AGENT CONTAINING PYRIDYLAMINOACETIC ACID COMPOUND” (priority 2015, published 2020)
Entries after “also recorded” stand apart in the source; their conditions may differ.

Test system: ocular hypertensive monkeys
Assay: Intraocular pressure-lowering effect in laser-induced ocular hypertensive monkeys
Type: in vivo, Macaca fascicularis
Conditions: 0.01 w/v% solution
Method: To investigate the usefulness of the present compound A, an intraocular pressure-lowering effect of the present compound A was tested in experimental animals (ocular hypertensive monkeys). Regarding test solutions, a reference solution not containing the present compound A was used as a control, a solution containing the present compound A was prepared as Example 1 of the invention of the present application, and a latanoprost eye drop was prepared as Comparative Example 1, as shown below.
To 1.7 g of polyoxyl 35 castor oil, 10 mL of a 0.5% (w/v) disodium edetate/10% (w/v) glycerin solution, 1 mL of a 1% (w/v) benzalkonium chloride solution, 30 mL of purified water, and 50 mL of a 2% (w/v) boric acid/0.2% (w/v) sorbic acid solution were added and dissolved therein. […]
(2) The intraocular pressure was measured immediately before instillation of one of the test solutions (the above-described control, Example 1, and Comparative Example 1), and employed as the initial intraocular pressure. […]
(4) After 2 hours, 4 hours, and 6 hours had passed from the instillation of the test solution, one drop of the 0.4% oxybuprocaine hydrochloride eye drop was instilled for local anesthesia to the eye whose intraocular pressure was to be measured, and then the intraocular pressure was measured. In addition, the intraocular pressure was measured three times, and the average value was shown in the results. […]

Structure (SMILES): CC(C)OC(=O)CNc1cccc(CN(Cc2ccc(-n3cccn3)cc2)S(=O)(=O)c2cccnc2)n1 [present compound A, isopropyl (6-{ [4-(pyrazol-1-yl)benzyl] (pyridin-3-ylsulfonyl)aminomethyl}pyridin-2-ylamino)acetate]
- intraocular pressure-lowering activity (in words): larger than that in the latanoprost-treated group; also recorded: rapidly provided an excellent intraocular pressure-lowering effect
- time after administration by which excellent intraocular pressure-lowering activity was exhibited: ≤ 2 h
